Legend:
[1] = test system: adult healthy domestic cats
Source text: Fifteen adult healthy domestic cats of both genders were individually fed with commercially available regular canned diet (Premium Pate rich in lamb, IAMS Pet Food GmbH & Co containing 0.26% of phosphorus corresponding to 1.13% phosphorus in the dry matter). The aim of the study was to assess the palatability and safety of lanthanum carbonate octahydrate especially in high doses. Therefore 10 cats were fed lanthanum carbonate octahydrate in their daily feed ration at increasing doses. The study began with a dose level of about 12-15 g per kg of feed (dry matter). The dose was doubled every two weeks up to a dose level of about 96-120 g per kg of feed (dry matter). Five cats were given the feed without any lanthanum carbonate octahydrate and served as controls.
Palatability was assessed daily by observing the general acceptance of the feed. Tolerability and safety were assessed by measuring the blood serum phosphate levels and body weight at regular intervals as well as by daily observations concerning the health status and the possible occurrence of adverse events.

[2] = test system: adult healthy domestic cats; settings: 0.3 and 3.0 g per kg of feed for two weeks
Source text: Within the context of a larger study, 24 adult healthy domestic cats of both genders, individually fed with a commercially available regular canned diet (‘Petley's Gourmet Supreme Beef Casserole’, PROMEAL (PTY) Ltd., containing 0.19% phosphorus corresponding to 1.13% phosphorus in the dry matter), were randomised to three equal groups of eight animals which were fed for two weeks with dose levels corresponding to 0, 0.3, and 3.0 grams of lanthanum carbonate octahydrate per kg of feed in their daily feed ration.
During the study the amount of food consumed was recorded daily and the animals were observed daily for the possible occurrence of adverse events. In the faeces collected over a three-day sampling period at the end of the study, the phosphorus levels were measured. On comparing the dietary intake of phosphorus with the excretion of phosphorus in the faeces, the apparent phosphorus digestibility was calculated according to the following equation: […]

[3] = test system: adult healthy female beagle dogs; settings: dogs, 1.75, 5.0 and 17.5 g per kg of feed
Source text: A total of twelve adult healthy female beagle dogs were individually fed with a commercially available regular canned feed (‘Eukanuba Adult with much lamb’, IAMs Pet Food Ltd., containing 0.25% of phosphorus corresponding to 1.09% phosphorus in the dry matter). At weekly intervals, their diet was supplemented with increasing amounts of lanthanum carbonate octahydrate, thus resulting in final concentrations of the feed additive of 0, 1.75, 5.0, and 17.5 g of lanthanum carbonate octahydrate per kg of feed.
During the study the amount of food consumed was recorded daily and the animals were observed daily for the possible occurrence of adverse events. In the faeces collected over a two-day sampling period at the end of the study, the phosphorus levels were measured. On comparing the dietary intake of phosphorus with the excretion of phosphorus in the faeces, the apparent phosphorus digestibility was calculated according to the following equation: […]

[4] = up to a dose level of 1 g/kg of body weight (=about 108 mg per kg of dry feed)

**Q.** With `O.O.O.O.O.O.O.O.O=C([O-])[O-].O=C([O-])[O-].O=C([O-])[O-].[La+3].[La+3]` [lanthanum carbonate octahydrate] as the compound, how does the “tolerance of the study animals” value ([1]; even in extremely high doses) read?
**A.** no negative effect

**Q.** And the “palatability or acceptance of the feed or its safety compared to the control cats” value ([1]; increasing doses vs control cats)?
**A.** no difference

**Q.** And the adverse events [1, 4]?
**A.** no limiting adverse events

**Q.** What about the body weight [1, 4] of the same compound?
**A.** no changes

**Q.** And the serum phosphate levels [1, 4]?
**A.** no changes

**Q.** And the “tolerance in the study animals” value [2]?
**A.** no negative effect

**Q.** And the apparent phosphorus digestibility ([2]; FIG. 1.2)?
**A.** corresponding decrease

**Q.** What about the “phosphorus content in the faeces” value ([2]; faeces collected over three days, FIG. 1.1) of the same compound?
**A.** dose-dependently increased

**Q.** And the “tolerance in the study animals” value [3]?
**A.** no negative effect

**Q.** And the apparent phosphorus digestibility ([3]; FIG. 2.2)?
**A.** corresponding decrease

**Q.** What about the “phosphorus content in the faeces” value ([3]; increased weekly, faeces collected over two days, FIG. 2.1) of the same compound?
**A.** dose-dependently increased

Source: patent US20080160163A1, “Reduction of Digestibility of Phosphorus” (BAYER HEALTHCARE AG, priority 2005, published 2008)
